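Protocol summary: plate cells (96-well), add compound at 5 concentrations, incubate 48 h, interpolate endpoints linearly. TGI denotes the concentration required for complete inhibition of growth.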
Experiments:
Assay in all cases: NCI tumour cell line growth inhibition, 48 h
[1] = test system: HCT-116 colon
[2] = test system: EKVX NSCLC
[3] = test system: COLO 205 colon
[4] = test system: HS 578T breast
[5] = test system: DU-145 prostate
[6] = test system: HL-60(TB) leukemia
[7] = test system: RPMI-8226 leukemia
[8] = test system: ACHN renal
[9] = test system: A549 NSCLC
[10] = test system: HT29 colon
[11] = test system: IGROV1 ovarian
[12] = test system: SNB-19 CNS
[13] = test system: A498 renal
[14] = test system: MCF7 breast
[15] = test system: UACC-62 melanoma
[16] = test system: OVCAR-3 ovarian
[17] = test system: K-562 leukemia
[18] = test system: OVCAR-8 ovarian
[19] = test system: MDA-MB-231 breast
[20] = test system: UO-31 renal
[21] = test system: NCI/ADR-RES ovarian
[22] = test system: HCT-15 colon
[23] = test system: HOP-62 NSCLC
[24] = test system: SF-268 CNS
[25] = test system: HOP-92 NSCLC
[26] = test system: NCI-H23 lung
[27] = test system: U251 CNS
[28] = test system: NCI-H226 lung
[29] = test system: HCC-2998 colon
[30] = test system: NCI-H460 lung
[31] = test system: SF-539 CNS
[32] = test system: M14 melanoma
[33] = test system: SK-MEL-28 melanoma
[34] = test system: SR leukemia
[35] = test system: MDA-N
[36] = test system: UACC-257 melanoma
[37] = test system: SF-295 CNS
[38] = test system: CCRF-CEM leukemia
[39] = test system: SK-MEL-5 melanoma
[40] = test system: MOLT-4 leukemia
[41] = test system: CAKI-1 renal
[42] = test system: SN12C renal
[43] = test system: BT-549 breast
[44] = test system: OVCAR-5 ovarian
[45] = test system: SK-OV-3 ovarian
[46] = test system: 786-0 renal
[47] = test system: SK-MEL-2 melanoma
[48] = test system: MALME-3M melanoma
[49] = test system: RXF 393 renal
[50] = test system: MDA-MB-435
[51] = test system: PC-3 prostate
[52] = test system: KM12 colon
[53] = test system: TK-10 renal
[54] = test system: OVCAR-4 ovarian
[55] = test system: SNB-75 CNS
[56] = test system: SW-620 colon
[57] = test system: LOX IMVI melanoma
[58] = test system: T-47D breast
[59] = test system: NCI-H522 lung

Cn1c(=O)c2c(nc(-n3nc(-c4ccc(Cl)cc4)cc3N)n2C)n(C)c1=O
TGI [1]: > 100 µM
TGI [2]: > 100 µM
TGI [3]: > 100 µM
TGI [4]: > 100 µM
TGI [5]: > 100 µM
TGI [6]: > 100 µM
TGI [7]: > 100 µM
TGI [8]: > 100 µM
TGI [9]: > 100 µM
TGI [10]: > 100 µM
TGI [11]: > 100 µM
TGI [12]: > 100 µM
TGI [13]: > 100 µM
TGI [14]: > 100 µM
TGI [15]: > 100 µM
TGI [16]: > 100 µM
TGI [17]: > 100 µM
TGI [18]: > 100 µM
TGI [19]: > 100 µM
TGI [20]: > 100 µM
TGI [21]: > 100 µM
TGI [22]: > 100 µM
TGI [23]: 81.9 µM
TGI [24]: > 100 µM
TGI [25]: > 100 µM
TGI [26]: > 100 µM
TGI [27]: > 100 µM
TGI [28]: > 100 µM
TGI [29]: > 100 µM
TGI [30]: > 100 µM
TGI [31]: 69.4 µM
TGI [32]: > 100 µM
TGI [33]: > 100 µM
TGI [34]: > 100 µM
TGI [35]: > 100 µM
TGI [36]: > 100 µM
TGI [37]: > 100 µM
TGI [38]: > 100 µM
TGI [39]: > 100 µM
TGI [40]: > 100 µM
TGI [41]: > 100 µM
TGI [42]: > 100 µM
TGI [43]: > 100 µM
TGI [44]: > 100 µM
TGI [45]: 91 µM
TGI [46]: > 100 µM
TGI [47]: > 100 µM
TGI [48]: 83.2 µM
TGI [49]: > 100 µM
TGI [50]: > 100 µM
TGI [51]: > 100 µM
TGI [52]: > 100 µM
TGI [53]: > 100 µM
TGI [54]: > 100 µM

COc1cccc(-c2c(C#N)c(N)nc3c2CCS(=O)(=O)c2ccc(C)cc2-3)c1
TGI [55]: > 100 µM
TGI [1]: > 100 µM
TGI [3]: > 100 µM
TGI [4]: > 100 µM
TGI [5]: > 100 µM
TGI [6]: > 100 µM
TGI [56]: > 100 µM
TGI [7]: > 100 µM
TGI [8]: > 100 µM
TGI [9]: > 100 µM
TGI [10]: > 100 µM
TGI [11]: > 100 µM
TGI [12]: > 100 µM
TGI [13]: > 100 µM
TGI [15]: > 100 µM
TGI [16]: > 100 µM
TGI [17]: > 100 µM
TGI [18]: > 100 µM
TGI [19]: > 100 µM
TGI [20]: > 100 µM
TGI [21]: > 100 µM
TGI [22]: > 100 µM
TGI [57]: > 100 µM
TGI [58]: > 100 µM
TGI [23]: > 100 µM
TGI [24]: > 100 µM
TGI [25]: > 100 µM
TGI [26]: > 100 µM
TGI [27]: > 100 µM
TGI [28]: > 100 µM
TGI [29]: > 100 µM
TGI [30]: > 100 µM
TGI [32]: > 100 µM
TGI [33]: > 100 µM
TGI [59]: > 100 µM
TGI [34]: > 100 µM
TGI [35]: > 100 µM
TGI [36]: > 100 µM
TGI [38]: > 100 µM
TGI [39]: > 100 µM
TGI [41]: > 100 µM
TGI [42]: > 100 µM
TGI [43]: > 100 µM
TGI [44]: > 100 µM
TGI [46]: > 100 µM
TGI [47]: > 100 µM
TGI [48]: > 100 µM
TGI [50]: > 100 µM
TGI [51]: > 100 µM
TGI [52]: > 100 µM
TGI [53]: > 100 µM
TGI [54]: > 100 µM

COc1ccc2nc(-n3c(/C=C/c4ccccc4O)nc4ccccc4c3=O)sc2c1
TGI [55]: > 100 µM
TGI [1]: 65.3 µM
TGI [2]: 39.7 µM
TGI [3]: > 100 µM
TGI [4]: > 100 µM
TGI [5]: > 100 µM
TGI [6]: > 100 µM
TGI [56]: > 100 µM
TGI [7]: 80.8 µM
TGI [8]: > 100 µM
TGI [9]: > 100 µM
TGI [10]: > 100 µM
TGI [11]: > 100 µM
TGI [12]: > 100 µM
TGI [13]: > 100 µM
TGI [14]: > 100 µM
TGI [15]: > 100 µM
TGI [16]: > 100 µM
TGI [17]: 59.6 µM
TGI [18]: > 100 µM
TGI [19]: > 100 µM
TGI [20]: > 100 µM
TGI [21]: > 100 µM
TGI [22]: > 100 µM
TGI [57]: > 100 µM
TGI [23]: > 100 µM
TGI [24]: > 100 µM
TGI [25]: > 100 µM
TGI [26]: > 100 µM
TGI [27]: > 100 µM
TGI [28]: > 100 µM
TGI [29]: > 100 µM
TGI [30]: > 100 µM
TGI [32]: > 100 µM
TGI [33]: > 100 µM
TGI [59]: > 100 µM
TGI [35]: 36.5 µM
TGI [36]: > 100 µM
TGI [37]: > 100 µM
TGI [38]: > 100 µM
TGI [39]: 66.2 µM
TGI [40]: > 100 µM
TGI [41]: > 100 µM
TGI [43]: > 100 µM
TGI [44]: > 100 µM
TGI [45]: > 100 µM
TGI [46]: > 100 µM
TGI [47]: > 100 µM
TGI [48]: > 100 µM
TGI [49]: > 100 µM
TGI [50]: 49.2 µM
TGI [51]: > 100 µM
TGI [52]: > 100 µM
TGI [53]: > 100 µM
TGI [54]: > 100 µM

CCCCCCCCCCCC(=O)Oc1c(Cl)cc(Cl)c(OC(=O)C(=O)Oc2c(Cl)cc(Cl)c(OC(=O)CCCCCCCCCCC)c2Cl)c1Cl
TGI [55]: > 100 µM
TGI [1]: > 100 µM
TGI [2]: > 100 µM
TGI [3]: > 100 µM
TGI [4]: > 100 µM
TGI [5]: > 100 µM
TGI [56]: > 100 µM
TGI [7]: > 100 µM
TGI [8]: > 100 µM
TGI [9]: > 100 µM
TGI [10]: > 100 µM
TGI [11]: > 100 µM
TGI [12]: > 100 µM
TGI [14]: > 100 µM
TGI [15]: > 100 µM
TGI [18]: > 100 µM
TGI [20]: > 100 µM
TGI [21]: > 100 µM
TGI [57]: > 100 µM
TGI [58]: > 100 µM
TGI [23]: > 100 µM
TGI [24]: > 100 µM
TGI [25]: > 100 µM
TGI [26]: > 100 µM
TGI [27]: > 100 µM
TGI [30]: > 100 µM
TGI [33]: > 100 µM
TGI [59]: > 100 µM
TGI [34]: > 100 µM
TGI [35]: > 100 µM
TGI [36]: > 100 µM
TGI [37]: > 100 µM
TGI [38]: > 100 µM
TGI [39]: > 100 µM
TGI [40]: > 100 µM
TGI [41]: > 100 µM
TGI [42]: > 100 µM
TGI [43]: > 100 µM
TGI [44]: > 100 µM
TGI [45]: > 100 µM
TGI [46]: > 100 µM
TGI [48]: > 100 µM
TGI [49]: > 100 µM
TGI [50]: > 100 µM
TGI [51]: > 100 µM
TGI [52]: > 100 µM
TGI [53]: > 100 µM
TGI [54]: > 100 µM

— PubChem BioAssay (NCI)
